“And” between values parts separate entries of the source, which are not always exact repeats. Equal entries are not always repeated. Where two headings read alike, the source gives them in different places.
How the values were obtained:
[1] = system: biofilms of Pseudomonas aeruginosa (ATCC 15442); assay: MBEC (minimum biofilm eradication concentration) test, 96-peg Calgary biofilm device; assay type: cell-based
[2] = system: biofilms of Sphaerotilus natans; settings: dynamic tests; maximum applied dose 20 ppm; cited from earlier work
sessile bacteria = settings: pH 9; cited from earlier work
[3] = system: biofilm-associated Legionella; settings: cited from earlier work
3-day biofilms = settings: cited from earlier work
[4] = system: biofilms consisting of a consortium of Legionella, heterotrophic bacteria and amoebae; settings: cited from earlier work
21-day old biofilms = settings: 1 mg/L free residual; 30° C.; cited from earlier work
Legionella pneumophila = settings: 1 mg/L for 24 hours; either metal surface; cited from earlier work
biofilm bacteria [5] = settings: 1 ppm residuals; cited from earlier work
biofilm bacteria [6] = settings: cited from earlier work
[7] = system: HPC Bacteria (planktonic and biofilm); assay: Laboratory model water system, 48-hour biocide challenge and 14-day recovery: HPC bacteria; assay type: cell-based
biofilm bacteria [8] = settings: 1.5 mg/L applied continuously for 18 hours; cited from earlier work
[9] = 1-day biofilm, one hour contact time, average, halogen biocides as Cl2, others as active ingredient
[10] = 1-day biofilm, one hour contact time, individual determinations, halogen biocides as Cl2, others as active ingredient
[11] = 7-day biofilm, one hour contact time, average, halogen biocides as Cl2
[12] = maximum log reduction, typically 2-12 hours after biocide application
[13] = relative to control after the 14-day recovery period

[Na+].[O-]Cl [Bleach, NaOCl]
1-Day Biofilm MBEC, avg. [1]: 3.8 ppm
1-Day Biofilm MBEC, ppm [1]: 5.0, 2.5 ppm
7-Day Biofilm MBEC, avg. [1]: 20 ppm
7-Day Biofilm MBEC, ppm [1]: 20, 20 ppm

O=c1n(Cl)c(=O)n(Cl)c(=O)n1Cl [Trichlor, 1,3,5-trichloroisocyanuric acid]
1-Day Biofilm MBEC, avg. [1]: 1.9 ppm
1-Day Biofilm MBEC, ppm [1]: 2.5, 1.2 ppm
7-Day Biofilm MBEC, avg. [1]: 20 ppm
7-Day Biofilm MBEC, ppm [1]: 20, 20 ppm

CCCCCCCCCCSCCN.Cl [DTEA, decylthioethaneamine hydrochloride]
1-Day Biofilm MBEC, avg. [1, 9]: 100 ppm
1-Day Biofilm MBEC, ppm [1, 10]: 100, 100 ppm

OBr [HOBr, hypobromous acid]
treatment level for biofilm control (but not eradication) [2]: 15 ppm

OO [H2O2, hydrogen peroxide]
1-Day Biofilm MBEC, avg. [1]: >200 ppm
1-Day Biofilm MBEC, ppm [1]: >100, >100 ppm
log reductions in sessile bacteria / biofilm counts (sessile bacteria): 2 log

N#CC(Br)(Br)C(N)=O [DBNPA, Dibromonitrilopropionamide]
1-Day Biofilm MBEC, avg. [1, 9]: 3.1 ppm
1-Day Biofilm MBEC, ppm [1, 10]: 2.0 ppm and 4.1 ppm
effect on levels of biofilm-associated Legionella [3]: non detectable levels

O=S(=O)([O-])[O-].OC[P+](CO)(CO)CO.OC[P+](CO)(CO)CO [THPS]
log reductions in sessile bacteria / biofilm counts (sessile bacteria): 2 log

O=[O+][O-] [ozone]
effect on levels of biofilm-associated Legionella [3]: did not appear to significantly affect

O=CCCCC=O [Glutaraldehyde, glutaraldehyde]
1-Day Biofilm MBEC, avg. [1, 9]: 50 ppm
1-Day Biofilm MBEC, ppm [1, 10]: 50, 50 ppm
7-Day Biofilm MBEC, avg. [1, 11]: ~200 ppm
7-Day Biofilm MBEC, ppm ([1]; 7-day biofilm, one hour contact time, individual determinations, halogen biocides as Cl2): 100 ppm and > 200 ppm
"no effect" level on biofilm removal (3-day biofilms): 20 ppm
log reductions in sessile bacteria / biofilm counts (sessile bacteria): 2 log
effect on levels of biofilm-associated Legionella [3]: non detectable levels
efficacy against biofilm-associated heterotrophic bacteria and Legionella [4]: effective

CC1(C)C(=O)N(Cl)C(=O)N1Br [BCDMH, 1-bromo-3-chloro-5,5-dimethylhydantoin]
1-Day Biofilm MBEC, avg. [1]: 2.5 ppm
1-Day Biofilm MBEC, ppm [1]: 2.5, 2.5 ppm
7-Day Biofilm MBEC, ppm [1]: 5, 10 ppm
7-Day Biofilm MBEC, avg. [1, 11]: 7.5 ppm
reduction of biofilm counts on mild steel (21-day old biofilms): 1.4 logs
reduction of biofilm counts on stainless steel (21-day old biofilms): 2.0 logs
viable Legionella recovered from the biofilms (Legionella pneumophila): no viable Legionella were recovered
log kill of biofilm bacteria (biofilm bacteria [5]): 1 log
efficacy against biofilm-associated heterotrophic bacteria and Legionella [4]: also effective but was slower acting

BrBr [bromine]
log reductions of biofilm bacteria (biofilm bacteria [6]): ~3 log
effect on levels of biofilm-associated Legionella [3]: non detectable levels

CC(=O)OO [Peracetic Acid, peracetic acid]
1-Day Biofilm MBEC, avg. ([1]; 1-day biofilm, four-hour contact time, average (est.)): ~150 ppm
1-Day Biofilm MBEC, ppm ([1]; 1-day biofilm, four-hour contact time, individual determinations, active ingredient): 100, >100 ppm

CC1(C)C(=O)N(Br)C(=O)N1Br [DBDMH, 1-3-dibromo-5,5-dimethylhydantoin]
1-Day Biofilm MBEC, avg. [1]: 1.2 ppm
1-Day Biofilm MBEC, ppm [1]: 1.2 ppm
7-Day Biofilm MBEC, avg. [1]: 5 ppm
7-Day Biofilm MBEC, ppm [1]: 5, 5 ppm
MBEC [1]: 1.4 mg/L
Log Reduction, HPC Bacteria, Biofilm [7, 12]: 2.7 log
Log Reduction, HPC Bacteria, Planktonic [7, 12]: 3.6 log
Log Reduction, HPC Bacteria, Biofilm [7, 13]: 0.4 log
Log Reduction, HPC Bacteria, Planktonic [7, 13]: 0.2 log

OCl [HOCl, Hypochlorous acid]
treatment level for biofilm control (but not eradication) [2]: > 20 ppm

CCC1(C)C(=O)N(Cl)C(=O)N1Br (centres unmarked) [BrMEH, bromo-chloro-methylethylhydantoin]
treatment level for biofilm control (but not eradication) [2]: 10 ppm
log kill of biofilm bacteria (biofilm bacteria [5]): 0.7 log

[O][Cl+][O-] [ClO2, Chlorine dioxide]
reduction of biofilm bacteria (biofilm bacteria [8]): 99.4%
